In patent publication US10246426B2, “Triazole compounds as T-type calcium channel blockers” (IDORSIA PHARMACEUTICALS LTD, priority 2014, dated 2019):

Target: Cav3.2 (Homo sapiens, UniProt O95180)
Experiment: Calcium flux FLIPR assay, HEK293 cells recombinantly expressing Cav3.2
Assay type: cell-based
Conditions: Cav3.2-channel, Ca2+ entry stimulated by 10 mM CaCl2
Outline: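 Fluo-4-loaded HEK293 cells stably expressing Cav3.2, seeded overnight at 37 °C; compounds diluted in TEAC buffer (pH 7.2) and preincubated 3 min before Ca2+ entry triggered with CaCl2 at 10 mM final. Area under FLIPR fluorescence trace fitted sigmoidally; IC50 relative to vehicle signal.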

Cav3.2, sequence (O95180 whole entry, looked up): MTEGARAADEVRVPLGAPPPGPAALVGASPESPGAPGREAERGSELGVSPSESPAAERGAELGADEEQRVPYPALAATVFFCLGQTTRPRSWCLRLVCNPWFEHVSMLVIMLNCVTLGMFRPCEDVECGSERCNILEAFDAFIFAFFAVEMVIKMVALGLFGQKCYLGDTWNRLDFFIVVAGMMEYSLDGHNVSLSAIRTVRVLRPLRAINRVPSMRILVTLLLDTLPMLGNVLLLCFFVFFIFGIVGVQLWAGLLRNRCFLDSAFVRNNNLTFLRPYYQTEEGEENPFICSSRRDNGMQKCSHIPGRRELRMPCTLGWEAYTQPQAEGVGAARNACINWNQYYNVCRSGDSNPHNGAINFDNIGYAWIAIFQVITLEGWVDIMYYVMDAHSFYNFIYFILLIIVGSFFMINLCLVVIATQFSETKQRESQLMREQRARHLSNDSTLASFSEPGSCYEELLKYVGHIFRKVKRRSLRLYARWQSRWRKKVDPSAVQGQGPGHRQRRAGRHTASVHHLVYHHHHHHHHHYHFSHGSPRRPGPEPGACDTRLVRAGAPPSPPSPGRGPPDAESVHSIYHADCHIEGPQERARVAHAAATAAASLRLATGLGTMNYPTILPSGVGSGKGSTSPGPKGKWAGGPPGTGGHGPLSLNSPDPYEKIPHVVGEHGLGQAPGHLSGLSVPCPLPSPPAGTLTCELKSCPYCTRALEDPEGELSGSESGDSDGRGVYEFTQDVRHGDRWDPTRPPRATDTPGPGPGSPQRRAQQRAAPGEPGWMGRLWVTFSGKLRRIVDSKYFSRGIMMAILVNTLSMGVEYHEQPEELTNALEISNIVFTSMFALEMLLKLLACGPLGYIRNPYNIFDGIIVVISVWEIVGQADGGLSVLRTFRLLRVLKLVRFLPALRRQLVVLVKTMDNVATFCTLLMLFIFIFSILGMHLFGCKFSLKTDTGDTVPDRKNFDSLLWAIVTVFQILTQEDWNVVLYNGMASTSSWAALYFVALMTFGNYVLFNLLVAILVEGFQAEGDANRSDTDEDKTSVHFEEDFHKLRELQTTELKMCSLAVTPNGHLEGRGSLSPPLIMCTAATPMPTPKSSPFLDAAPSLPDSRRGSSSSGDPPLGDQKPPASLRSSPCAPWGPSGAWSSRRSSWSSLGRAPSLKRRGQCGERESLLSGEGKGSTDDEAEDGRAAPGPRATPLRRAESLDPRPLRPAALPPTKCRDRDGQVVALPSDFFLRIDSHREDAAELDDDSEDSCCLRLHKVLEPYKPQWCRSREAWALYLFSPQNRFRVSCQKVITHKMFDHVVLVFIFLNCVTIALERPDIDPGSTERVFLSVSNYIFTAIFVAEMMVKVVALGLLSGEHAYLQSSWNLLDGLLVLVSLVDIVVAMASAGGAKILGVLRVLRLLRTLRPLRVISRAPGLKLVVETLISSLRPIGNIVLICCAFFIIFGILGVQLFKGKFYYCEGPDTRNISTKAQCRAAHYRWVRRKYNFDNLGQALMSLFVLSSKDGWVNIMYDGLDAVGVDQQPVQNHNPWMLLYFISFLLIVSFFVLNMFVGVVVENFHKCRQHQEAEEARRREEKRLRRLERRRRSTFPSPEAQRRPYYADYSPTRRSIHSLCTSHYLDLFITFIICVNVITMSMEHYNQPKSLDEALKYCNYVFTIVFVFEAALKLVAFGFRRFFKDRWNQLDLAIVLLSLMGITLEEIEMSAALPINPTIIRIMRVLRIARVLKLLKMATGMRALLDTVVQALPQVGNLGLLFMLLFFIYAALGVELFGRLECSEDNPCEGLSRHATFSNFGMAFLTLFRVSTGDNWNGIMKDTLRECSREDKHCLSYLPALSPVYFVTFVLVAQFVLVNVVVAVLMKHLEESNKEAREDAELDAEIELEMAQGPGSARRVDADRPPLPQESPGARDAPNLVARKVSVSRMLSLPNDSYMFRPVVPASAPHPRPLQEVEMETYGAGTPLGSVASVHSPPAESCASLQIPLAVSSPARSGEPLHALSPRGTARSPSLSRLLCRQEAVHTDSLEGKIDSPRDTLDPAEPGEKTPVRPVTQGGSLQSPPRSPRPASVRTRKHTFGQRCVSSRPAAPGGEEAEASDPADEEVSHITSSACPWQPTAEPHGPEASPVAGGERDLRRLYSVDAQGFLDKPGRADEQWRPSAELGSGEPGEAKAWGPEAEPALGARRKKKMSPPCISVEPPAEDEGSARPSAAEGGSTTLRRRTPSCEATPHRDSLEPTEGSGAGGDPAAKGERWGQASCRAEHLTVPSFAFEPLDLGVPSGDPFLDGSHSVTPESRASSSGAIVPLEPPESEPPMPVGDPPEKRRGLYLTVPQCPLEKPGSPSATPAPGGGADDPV

Row | SMILES | IC50 [µM]
1 | COc1ccc(Cn2ncc(NC(=O)Cc3ccc(C4(C(F)(F)F)CC4)cc3)n2)cc1F [Example 124, N-[2-(3-Fluoro-4-methoxy-benzyl)-2H-[1,2,3]triazol-4-yl]-2-[4-(1-trifluoromethyl-cyclopropyl)-phenyl]-acetamide] | 0.25
2 | O=C(Cc1ccc(OC2CC2)cc1)Nc1cnn(Cc2ccc(F)c(F)c2)n1 [Example 10, 2-(4-Cyclopropoxy-phenyl)-N-[2-(3,4-difluoro-benzyl)-2H-[1,2,3]triazol-4-yl]-acetamide] | 0.023
3 | COC1(c2ccc(CC(=O)Nc3cnn(Cc4ccc(C)c(C#N)c4)n3)cc2)COC1 [Example 206, N-[2-(3-Cyano-4-methyl-benzyl)-2H-[1,2,3]triazol-4-yl]-2-[4-(3-methoxy-oxetan-3-yl)-phenyl]-acetamide] | 0.9
4 | N#Cc1ccc(Cn2ncc(NC(=O)Cc3ccc(S(F)(F)(F)(F)F)cc3)n2)cc1F [Example 232, N-(2-(4-cyano-3-fluorobenzyl)-2H-1,2,3-triazol-4-yl)-2-(4-(pentafluoro-λ6-sulfanyl)phenyl)acetamide] | 0.11
5 | Cc1ccc(Cn2ncc(NC(=O)Cc3ccc(N4CCCC4)nc3)n2)cc1 [Example 68, N-[2-(4-Methyl-benzyl)-2H-[1,2,3]triazol-4-yl]-2-(6-pyrrolidin-1-yl-pyridin-3-yl)-acetamide] | 0.045
6 | COc1c(F)cc(Cn2ncc(NC(=O)Cc3ccc4c(ccn4C)c3)n2)cc1F [Example 77, N-[2-(3,5-Difluoro-4-methoxy-benzyl)-2H-[1,2,3]triazol-4-yl]-2-(1-methyl-1H-indol-5-yl)-acetamide] | 0.013
7 | COc1cc(Cn2ncc(NC(=O)Cc3ccc4c(cnn4C)c3)n2)cc(F)c1F [Example 212, N-[2-(3,4-Difluoro-5-methoxy-benzyl)-2H-[1,2,3]triazol-4-yl]-2-(1-methyl-1H-indazol-5-yl)-acetamide] | 0.23
8 | CC1(COc2ccc(CC(=O)Nc3cnn(Cc4ccc(C#N)cc4)n3)cc2)CC(F)(F)C1 [Example 197, N-[2-(4-Cyano-benzyl)-2H-[1,2,3]triazol-4-yl]-2-[4-(3,3-difluoro-1-methyl-cyclobutylmethoxy)-phenyl]-acetamide] | 0.052
9 | CN(CC1CC1)c1ccc(CC(=O)Nc2cnn(Cc3ccc(F)c(F)c3)n2)cn1 [Example 12, 2-[6-(Cyclopropylmethyl-methyl-amino)-pyridin-3-yl]-N-[2-(3,4-difluoro-benzyl)-2H-[1,2,3]triazol-4-yl]-acetamide] | 0.031
10 | CCn1ncc2cc(CC(=O)Nc3cnn(Cc4cc(F)c(OC)c(F)c4)n3)ccc21 [Example 149, N-[2-(3,5-Difluoro-4-methoxy-benzyl)-2H-[1,2,3]triazol-4-yl]-2-(1-ethyl-1H-indazol-5-yl)-acetamide] | 0.029
11 | COc1ccc(Cn2ncc(NC(=O)Cc3ccc(N4CCC(F)(F)C4)nc3)n2)cc1F [Example 126, 2-[6-(3,3-Difluoro-pyrrolidin-1-yl)-pyridin-3-yl]-N-[2-(3-fluoro-4-methoxy-benzyl)-2H-[1,2,3]triazol-4-yl]-acetamide] | 0.047
12 | CCn1ncc2cc(CC(=O)Nc3cnn(Cc4ccc(F)c(F)c4)n3)ccc21 [Example 27, N-[2-(3,4-Difluoro-benzyl)-2H-[1,2,3]triazol-4-yl]-2-(1-ethyl-1H-indazol-5-yl)-acetamide] | 0.0098
13 | O=C(Cc1ccc(C2(F)COC2)cc1)Nc1cnn(Cc2ccc(F)c(F)c2)n1 [Example 14, N-[2-(3,4-Difluoro-benzyl)-2H-[1,2,3]triazol-4-yl]-2-[4-(3-fluoro-oxetan-3-yl)-phenyl]-acetamide] | 0.017
14 | COc1ccc(Cn2ncc(NC(=O)Cc3ccc(C4(F)COC4)cc3)n2)cc1F [Example 127, N-[2-(3-Fluoro-4-methoxy-benzyl)-2H-[1,2,3]triazol-4-yl]-2-[4-(3-fluoro-oxetan-3-yl)-phenyl]-acetamide] | 0.11
15 | O=C(Cc1ccc(N2CCCC2)nc1)Nc1cnn(Cc2ccc(F)c(F)c2)n1 [Example 18, N-[2-(3,4-Difluoro-benzyl)-2H-[1,2,3]triazol-4-yl]-2-(6-pyrrolidin-1-yl-pyridin-3-yl)-acetamide] | 0.015
16 | COc1ccc(Cn2ncc(NC(=O)Cc3ccc(C(C)(C)C)cc3)n2)cc1F [Example 130, 2-(4-tert-Butyl-phenyl)-N-[2-(3-fluoro-4-methoxy-benzyl)-2H-[1,2,3]triazol-4-yl]-acetamide] | 0.062
17 | O=C(Cc1ccc2[nH]nc(C3CC3)c2c1)Nc1cnn(Cc2ccc(F)c(F)c2)n1 [Example 29, 2-(3-Cyclopropyl-1H-indazol-5-yl)-N-[2-(3,4-difluoro-benzyl)-2H-[1,2,3]triazol-4-yl]-acetamide] | 0.12
18 | COc1c(F)cc(Cn2ncc(NC(=O)Cc3ccc4cnn(C)c4c3)n2)cc1F [Example 142, N-[2-(3,5-Difluoro-4-methoxy-benzyl)-2H-[1,2,3]triazol-4-yl]-2-(1-methyl-1H-indazol-6-yl)-acetamide] | 0.088

Row | SMILES | IC50 [µM]
19 | COc1c(F)cc(Cn2ncc(NC(=O)Cc3ccc(N4CCC(F)(F)C4)nc3)n2)cc1F [Example 147, N-[2-(3,5-Difluoro-4-methoxy-benzyl)-2H-[1,2,3]triazol-4-yl]-2-[6-(3,3-difluoro-pyrrolidin-1-yl)-pyridin-3-yl]-acetamide] | 0.013
20 | COc1cc(Cn2ncc(NC(=O)Cc3ccc(C4(OC)COC4)cc3)n2)ccc1F [Example 110, N-[2-(4-Fluoro-3-methoxy-benzyl)-2H-[1,2,3]triazol-4-yl]-2-[4-(3-methoxy-oxetan-3-yl)-phenyl]-acetamide] | 0.14
21 | Cn1ncc2cc(CC(=O)Nc3cnn(Cc4ccc(OC(F)F)c(F)c4)n3)ccc21 [Example 179, N-[2-(4-Difluoromethoxy-3-fluoro-benzyl)-2H-[1,2,3]triazol-4-yl]-2-(1-methyl-1H-indazol-5-yl)-acetamide] | 0.022
22 | O=C(Cc1ccc(N2CCC(F)(F)C2)nc1)Nc1cnn(Cc2ccc(OC(F)(F)F)c(F)c2)n1 [Example 189, 2-[6-(3,3-Difluoro-pyrrolidin-1-yl)-pyridin-3-yl]-N-[2-(3-fluoro-4-trifluoromethoxy-benzyl)-2H-[1,2,3]triazol-4-yl]-acetamide] | 0.017
23 | COc1cc(Cn2ncc(NC(=O)Cc3ccc(OC4CC(F)(F)C4)cc3)n2)cc(F)c1F [Example 230, 2-[4-(3,3-Difluoro-cyclobutoxy)-phenyl]-N-[2-(3,4-difluoro-5-methoxy-benzyl)-2H-[1,2,3]triazol-4-yl]-acetamide] | 0.35
24 | Cc1cc(Cn2ncc(NC(=O)Cc3ccc4c(cnn4C)c3)n2)ccc1C#N [Example 164, N-[2-(4-Cyano-3-methyl-benzyl)-2H-[1,2,3]triazol-4-yl]-2-(1-methyl-1H-indazol-5-yl)-acetamide] | 0.11
25 | COc1ccc(Cn2ncc(NC(=O)Cc3ccc(N4CCC(F)(F)C4)nc3)n2)cc1OC [Example 48, 2-[6-(3,3-Difluoro-pyrrolidin-1-yl)-pyridin-3-yl]-N-[2-(3,4-dimethoxy-benzyl)-2H-[1,2,3]triazol-4-yl]-acetamide] | 0.53
26 | COc1ccc(Cn2ncc(NC(=O)Cc3ccc4c(cnn4C)c3)n2)cc1C#N [Example 208, N-[2-(3-Cyano-4-methoxy-benzyl)-2H-[1,2,3]triazol-4-yl]-2-(1-methyl-1H-indazol-5-yl)-acetamide] | 0.6
27 | CC(C)(C)c1ccc(CC(=O)Nc2cnn(Cc3ccc(OC(F)F)cc3)n2)cc1 [Example 88, 2-(4-tert-Butyl-phenyl)-N-[2-(4-difluoromethoxy-benzyl)-2H-[1,2,3]triazol-4-yl]-acetamide] | 0.056
28 | CC(C)c1ccc(CC(=O)Nc2cnn(Cc3ccc(F)c(F)c3)n2)cc1 [Example 5, N-[2-(3,4-Difluoro-benzyl)-2H-[1,2,3]triazol-4-yl]-2-(4-isopropyl-phenyl)-acetamide] | 0.03
29 | O=C(Cc1ccc2[nH]ccc2c1)Nc1cnn(Cc2ccc(F)c(F)c2)n1 [Example 15, N-[2-(3,4-Difluoro-benzyl)-2H-[1,2,3]triazol-4-yl]-2-(1H-indol-5-yl)-acetamide] | 0.04
30 | COc1ccc(Cn2ncc(NC(=O)Cc3ccc(N4CCC(F)(F)C4)nc3)n2)cc1C#N [Example 207, N-[2-(3-Cyano-4-methoxy-benzyl)-2H-[1,2,3]triazol-4-yl]-2-[6-(3,3-difluoro-pyrrolidin-1-yl)-pyridin-3-yl]-acetamide] | 0.13
31 | COc1cc(Cn2ncc(NC(=O)Cc3ccc4cnn(C)c4c3)n2)cc(F)c1F [Example 225, N-[2-(3,4-Difluoro-5-methoxy-benzyl)-2H-[1,2,3]triazol-4-yl]-2-(1-methyl-1H-indazol-6-yl)-acetamide] | 0.56
32 | CCCn1ncc2cc(CC(=O)Nc3cnn(Cc4ccc(C#N)cc4)n3)ccc21 [Example 104, N-[2-(4-Cyano-benzyl)-2H-[1,2,3]triazol-4-yl]-2-(1-propyl-1H-indazol-5-yl)-acetamide] | 0.07
33 | COc1ccc(Cn2ncc(NC(=O)Cc3ccc(C(C)(C)C)cc3)n2)cc1OC [Example 49, 2-(4-tert-Butyl-phenyl)-N-[2-(3,4-dimethoxy-benzyl)-2H-[1,2,3]triazol-4-yl]-acetamide] | 0.17
34 | CCn1ncc2cc(CC(=O)Nc3cnn(Cc4ccc(C#N)c(F)c4)n3)ccc21 [Example 139, N-[2-(4-Cyano-3-fluoro-benzyl)-2H-[1,2,3]triazol-4-yl]-2-(1-ethyl-1H-indazol-5-yl)-acetamide] | 0.069
35 | Cc1ccc(Cn2ncc(NC(=O)Cc3ccc(C(C)(C)C)cc3)n2)cc1C#N [Example 217, 2-(4-tert-Butyl-phenyl)-N-[2-(3-cyano-4-methyl-benzyl)-2H-[1,2,3]triazol-4-yl]-acetamide] | 0.16
36 | COc1cc(Cn2ncc(NC(=O)Cc3ccc(C(C)(C)C)cc3)n2)ccc1F [Example 119, 2-(4-tert-Butyl-phenyl)-N-[2-(4-fluoro-3-methoxy-benzyl)-2H-[1,2,3]triazol-4-yl]-acetamide] | 0.062
